Measurements: ChEMBL document CHEMBL1201862, “PubChem BioAssay data set” (2004)
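Compound exposure: 48 hours, 5 concentrations, 96-well plates. Here, GI50 denotes the concentration required for 50% inhibition of growth.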 The source made the active and inactive calls. Rule as the data show it: active = GI50 up to about 1.1 µM and inactive = higher.

Columns and labels:
Assay in all cases: DTP human tumour cell line panel, 48 h
786-0 = system: 786-0
ACHN = system: ACHN
BT-549 = system: BT-549
DU-145 = system: DU-145
HCT-116 = system: HCT-116
HOP-62 = system: HOP-62
HT-29 = system: HT-29
IGROV-1 = system: IGROV-1
LOX IMVI = system: LOX IMVI
MCF7 = system: MCF7
NCI-H23 = system: NCI-H23
NCI-H460 = system: NCI-H460
OVCAR-3 = system: OVCAR-3
PC-3 = system: PC-3
RPMI-8226 = system: RPMI-8226
SF-295 = system: SF-295
SW-620 = system: SW-620
UACC-62 = system: UACC-62
UO-31 = system: UO-31
SK-MEL-28 = system: SK-MEL-28

Measured: GI50

Cc1c2c(c(C)n1-c1ccccc1)C(=O)N(CCCCN1CCN(c3ccccc3)CC1)C2=O
inactive: 786-0 4.97 µM | ACHN 23.1 µM | BT-549 16.9 µM | DU-145 19 µM | HCT-116 7.71 µM | HOP-62 7.73 µM | HT-29 2.57 µM | IGROV-1 15.1 µM | LOX IMVI 10 µM | MCF7 9.42 µM | NCI-H23 6.73 µM | NCI-H460 11.7 µM | OVCAR-3 8.95 µM | PC-3 6.82 µM | RPMI-8226 7.52 µM | SF-295 14.6 µM | SW-620 18.9 µM | UACC-62 15.8 µM | UO-31 4.17 µM

CC1OC(OC2C(O)COC(OC3C(C)OC(OC4C(OC(=O)[C@]56CCC(C)(C)C[C@@H]5C5=CCC7[C@@]8(C)C[C@H](O)[C@H](OC9OC(CO)C(O)C(O)C9O)[C@@](C)(CO)[C@@H]8CC[C@@]7(C)[C@]5(C)CC6)OCC(O)C4O)C(O)C3O)C2O)C(O)C(O)C1O (some centres undefined)
inactive: 786-0 18.1 µM | ACHN 21.2 µM | BT-549 24.1 µM | DU-145 19.1 µM | HCT-116 25.8 µM | HOP-62 18.3 µM | HT-29 21 µM | LOX IMVI 21.3 µM | MCF7 30.9 µM | NCI-H23 28.2 µM | NCI-H460 20.5 µM | OVCAR-3 18.1 µM | PC-3 18.2 µM | RPMI-8226 33.2 µM | SF-295 23.9 µM | SK-MEL-28 15 µM | SW-620 20.1 µM | UACC-62 20.8 µM | UO-31 12.9 µM

CN1CCC/C1=C1/C(=O)N(c2ccccc2)N=C1c1ccc[nH]1
inactive: 786-0 > 100 µM | ACHN > 100 µM | BT-549 > 100 µM | DU-145 > 100 µM | HCT-116 > 100 µM | HOP-62 > 100 µM | IGROV-1 > 100 µM | LOX IMVI > 100 µM | MCF7 > 100 µM | NCI-H23 > 100 µM | NCI-H460 > 100 µM | OVCAR-3 > 100 µM | PC-3 > 100 µM | RPMI-8226 > 100 µM | SF-295 > 100 µM | SK-MEL-28 > 100 µM | SW-620 > 100 µM | UACC-62 > 100 µM | UO-31 > 100 µM

NS(=O)(=O)c1ccc(NC(=S)N/C=C2\C(=O)Nc3ccccc3C2=O)cc1
inactive: 786-0 > 100 µM | ACHN > 100 µM | BT-549 > 100 µM | DU-145 > 100 µM | HCT-116 > 100 µM | HOP-62 > 100 µM | HT-29 > 100 µM | IGROV-1 > 100 µM | LOX IMVI > 100 µM | MCF7 > 100 µM | NCI-H23 > 100 µM | NCI-H460 > 100 µM | OVCAR-3 > 100 µM | PC-3 > 100 µM | RPMI-8226 > 100 µM | SF-295 > 100 µM | SK-MEL-28 > 100 µM | SW-620 > 100 µM | UACC-62 > 100 µM | UO-31 > 100 µM

N#Cc1sc2c(c1OC(=O)c1ccco1)c(=O)n(-c1ccccc1)c(=S)n2-c1ccccc1
inactive: 786-0 31.1 µM | BT-549 37.6 µM | DU-145 48.5 µM | HCT-116 19.2 µM | HOP-62 25.9 µM | HT-29 32.9 µM | IGROV-1 > 10 µM | LOX IMVI 16.2 µM | MCF7 31.2 µM | NCI-H23 34.8 µM | NCI-H460 32 µM | OVCAR-3 24.8 µM | PC-3 18.5 µM | RPMI-8226 22.4 µM | SF-295 26.7 µM | SK-MEL-28 35 µM | SW-620 17.7 µM | UACC-62 15.3 µM | UO-31 16 µM

Cc1ccc(Nc2cc(=O)[nH]c(=S)[nH]2)cc1
inactive: 786-0 > 100 µM | ACHN > 100 µM | BT-549 > 100 µM | DU-145 > 100 µM | HCT-116 > 100 µM | HOP-62 > 100 µM | HT-29 > 100 µM | IGROV-1 > 100 µM | LOX IMVI > 100 µM | MCF7 > 100 µM | NCI-H23 > 100 µM | NCI-H460 > 100 µM | OVCAR-3 > 100 µM | PC-3 > 100 µM | RPMI-8226 > 100 µM | SF-295 > 100 µM | SW-620 > 100 µM | UACC-62 > 100 µM | UO-31 > 100 µM

Cc1csc2c1-n1cccc1C2=O
inactive: 786-0 > 100 µM | ACHN > 100 µM | BT-549 > 100 µM | DU-145 > 100 µM | HCT-116 > 100 µM | HOP-62 53 µM | HT-29 > 100 µM | IGROV-1 > 100 µM | LOX IMVI > 100 µM | MCF7 > 100 µM | NCI-H460 > 100 µM | OVCAR-3 > 100 µM | PC-3 > 100 µM | RPMI-8226 > 100 µM | SF-295 > 100 µM | SK-MEL-28 > 100 µM | SW-620 > 100 µM | UACC-62 > 100 µM | UO-31 43.3 µM
